Assay results reported in patent publication US20140187548A1, “6 SUBSTITUTED IMIDAZOPYRAZINES FOR USE AS MPS-1 AND TKK INHIBITORS IN THE TREATMENT OF HYPERPROLIFERATIVE DISORDERS” (BAYER INTELLECTUAL PROPERTY GMBH, priority 2010, published 2014).

molecular target: T1, human kinase Mps-1 (Homo sapiens, UniProt P33981); test: Mps-1 kinase assay (TR-FRET); type: biochemical; details: N-terminally GST-tagged human full length recombinant Mps-1; 10 μM ATP; 1 μM peptide substrate; 15 min pre-incubation; 60 min at 22° C.
T1 construct: N-terminally GST-tagged human full length recombinant Mps-1 kinase; GST (N); purchased Invitrogen, Karslruhe, Germany PV4071
T1 sequence (P33981 1-857): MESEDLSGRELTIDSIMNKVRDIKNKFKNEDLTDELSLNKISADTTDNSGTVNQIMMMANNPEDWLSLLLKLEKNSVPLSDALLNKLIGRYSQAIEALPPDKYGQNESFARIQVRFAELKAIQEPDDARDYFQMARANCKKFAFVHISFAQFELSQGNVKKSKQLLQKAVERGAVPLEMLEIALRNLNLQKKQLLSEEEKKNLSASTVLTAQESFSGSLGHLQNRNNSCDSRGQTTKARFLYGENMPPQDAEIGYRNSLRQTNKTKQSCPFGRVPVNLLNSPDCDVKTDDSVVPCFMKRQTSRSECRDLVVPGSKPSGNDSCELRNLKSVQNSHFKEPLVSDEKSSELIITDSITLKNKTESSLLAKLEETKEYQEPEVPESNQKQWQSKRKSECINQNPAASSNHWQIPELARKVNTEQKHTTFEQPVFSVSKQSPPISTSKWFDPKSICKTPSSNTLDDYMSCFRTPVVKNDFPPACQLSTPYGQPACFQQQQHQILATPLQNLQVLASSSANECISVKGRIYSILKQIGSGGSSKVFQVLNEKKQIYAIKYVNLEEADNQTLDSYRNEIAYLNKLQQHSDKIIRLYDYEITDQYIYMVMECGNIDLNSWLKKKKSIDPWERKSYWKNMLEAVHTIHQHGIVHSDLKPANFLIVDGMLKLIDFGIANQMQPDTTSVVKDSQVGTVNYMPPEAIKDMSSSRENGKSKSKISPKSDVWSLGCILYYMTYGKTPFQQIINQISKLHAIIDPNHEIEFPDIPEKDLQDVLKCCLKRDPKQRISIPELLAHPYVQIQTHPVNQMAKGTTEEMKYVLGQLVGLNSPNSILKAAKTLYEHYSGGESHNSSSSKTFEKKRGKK
Procedure, shortened: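 N-terminally GST-tagged full-length recombinant human Mps-1, about 1 nM final, phosphorylates a biotinylated peptide. Product detected by TR-FRET from Eu-anti-phospho-Ser/Thr antibody to streptavidin-XLent after 1 h at 22° C.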

IC50 [nM] | SMILES
78.3 | CN(C)c1ccc(-c2cn3c(-c4ccc(C(=O)NC5CC5)c(Cl)c4)cnc3c(NCC3CCCO3)n2)cc1 (stereo not shown) [Example 1-105, 2-chloro-N-cyclopropyl-4-{6-[4-(dimethylamino)phenyl]-8-[(tetrahydro-furan-2-ylmethyl)amino]imidazo[1,2-a]pyrazin-3-yl}benzamide]
1.4 | O=C(NC1CC1)c1ccc(-c2cnc3c(NCc4ccccc4F)nc(-c4ccccc4)cn23)cc1 [Example 2-13, N-cyclopropyl-4-{8-[(2-fluorobenzyl)amino]-6-phenylimidazo[1,2-a]pyrazin-3-yl}benzamide]
5.8 | O=C(NC1CC1)c1ccc(-c2cnc3c(NCc4ccc5c(c4)OCO5)nc(-c4ccccc4)cn23)cc1 [Example 2-32, 4-{8-[(1,3-benzodioxol-5-ylmethyl)amino]-6-phenylimidazo[1,2-a]pyrazin-3-yl}-N-cyclopropyl-benzamide]
1.6 | NCCCCCCNc1nc(-c2ccccc2)cn2c(-c3ccc(C(=O)NC4CC4)cc3)cnc12 [Example 2-84, 4-{8-[(6-Aminohexyl)amino]-6-phenylimidazo[1,2-a]pyrazin-3-yl}-N-cyclopropylbenzamide]
1.5 | CC(C)CNc1nc(-c2ccc(N3CCOCC3)cc2)cn2c(-c3ccc(C(=O)NC4CC4)cc3)cnc12 [Example 1-91, N-cyclopropyl-4-{8-[(2-methylpropyl)amino]-6-[4-(morpholin-4-yl)phenyl]imidazo[1,2-a]pyrazin-3-yl}benzamide]
2.1 | CC(C)CNc1nc(-c2ccc(C#N)cc2)cn2c(-c3ccc(C(=O)NC4CC4)cc3)cnc12 [Example 1-73, 4-{6-(4-cyanophenyl)-8-[(2-methylpropyl)amino]imidazo[1,2-a]pyrazin-3-yl}-N-cyclo-propylbenzamide]
6.4 | O=C(NC1CC1)c1ccc(-c2cnc3c(NCc4sccc4Cl)nc(-c4ccccc4)cn23)cc1 [Example 2-59, 4-(8-{[(3-chlorothiophen-2-yl)methyl]amino}-6-phenylimidazo [1,2-a]pyrazin-3-yl)-N-cyclopropylbenzamide]
21 | CC(C)CNc1nc(-c2ccc3cc[nH]c3c2)cn2c(-c3ccc(C(=O)NC4CC4)cc3)cnc12 [Example 1-23, N-cyclopropyl-4-{6-(1H-indol-6-yl)-8-[(2-methyl-propyl)amino]imidazo [1,2-a]pyrazin-3-yl} benzamide]
6.1 | CC(C)(O)CNc1nc(-c2cc(F)c(F)cc2F)cn2c(-c3ccc(C(=O)NC4CC4)cc3)cnc12 [Example 1-133, N-cyclopropyl-4-{8-[(2-hydroxy-2-methylpropyl)amino]-6-(2,4,5-trifluoro-phenyl)imidazo[1,2-a]pyrazin-3-yl}benzamide]
1.9 | Cc1cc(-c2cnc3c(NCCC(F)(F)F)nc(-c4ccccc4CO)cn23)ccc1C(=O)NC1CC1 [Example 1-138, N-cyclopropyl-4-{6-[2-(hydroxymethyl)phenyl]-8-[(3,3,3-trifluoro-propyl)amino]imidazo[1,2-a]pyrazin-3-yl}-2-methylbenzamide]
4.6 | CC(C)CNc1nc(-c2cccc(C(=O)NCc3ccccc3)c2)cn2c(-c3ccc(C(=O)NC4CC4)cc3)cnc12 [Example 1-55, N-benzyl-3-{3-[4-(cyclo-propylcarbamoyl)phenyl]-8-[(2-methylpropyl)amino]imidazo[1,2-a]pyrazin-6-yl}benzamide]
10.4 | CC(C)CNc1nc(-c2cccc(C(=O)Nc3ccccc3)c2)cn2c(-c3ccc(C(=O)NC4CC4)cc3)cnc12 [Example 1-57, 3-{3-[4-(cyclopropyl-carbamoyl)phenyl]-8-[(2-methylpropyl)amino]imidazo[1,2-a]pyrazin-6-yl}-N-phenylbenzamide]
28.8 | CN(C)c1ccc(-c2cn3c(-c4ccc(C(=O)NC5CC5)c(F)c4)cnc3c(NCC3CCCO3)n2)cc1 (stereo not shown) [Example 1-117, N-cyclopropyl-4-{6-[4-(dimethylamino)phenyl]-8-[(tetrahydrofuran-2-ylmethyl)amino]imidazo [1,2-a]pyrazin-3-yl}-2-fluorobenzamide]
4.2 | CC(C)CNc1nc(-c2ccc(C(=O)NC(C)C)cc2)cn2c(-c3ccc(C(=O)NC4CC4)cc3)cnc12 [Example 1-34, 4-{3-[4-(cyclopropyl-carbamoyl)phenyl]-8-[(2-methylpropyl)amino]imidazo[1,2-a]pyrazin-6-yl}-N-(propan-2-yl) benzamide]
6.7 | COc1ccc(-c2cn3c(-c4ccc(C(=O)NC5CC5)cc4)cnc3c(NCC(C)C)n2)cc1F [Example 1-62, N-cyclopropyl-4-{6-(3-fluoro-4-methoxyphenyl)-8-[(2-methylpropyl)amino]imidazo[1,2-a]pyrazin-3-yl}benzamide]
4.8 | COc1cccc(-c2cn3c(-c4ccc(C(=O)NC5CC5)cc4)cnc3c(NCC(C)C)n2)c1 [Example 1-38, N-cyclopropyl-4-{6-(3-methoxyphenyl)-8-[(2-methylpropyl)amino]imidazo[1,2-a]pyrazin-3-yl}benzamide]
7.6 | CC(C)CNc1nc(-c2ccc(N(C)C)cc2)cn2c(-c3ccc(C(=O)NC4CC4)cc3)cnc12 [Example 1-92, N-cyclopropyl-4-{6-[4-(dimethylamino)phenyl]-8-[(2-methylpropyl)amino]imidazo[1,2-a]pyrazin-3-yl}benzamide]
10.7 | CC(C)CNc1nc(-c2ccccc2)c(Cl)n2c(-c3ccc(C(=O)NC4CC4)cc3)cnc12 [Example 3-1, 4-{5-chloro-8-[(2-methylpropyl)amino]-6-phenylimidazo[1,2-a]pyrazin-3-yl}-N-cyclopropylbenzamide]
49.3 | CC(C)CNc1nc(-c2cccc(C(F)(F)F)c2)cn2c(-c3ccc(C(=O)NC4CC4)cc3)cnc12 [Example 1-35, N-cyclopropyl-4-{8-[(2-methylpropyl)amino]-6-[3-(trifluoromethyl)phenyl]imidazo[1,2-a]pyrazin-3-yl}benzamide]
1.6 | CC(C)CNc1nc(-c2cccc(C(=O)NC3CC3)c2)cn2c(-c3ccc(C(=O)NC4CC4)cc3)cnc12 [Example 1-56, N-cyclopropyl-3-{3-[4-(cyclopropylcarbamoyl)phenyl]-8-[(2-methylpropyl)amino]imidazo [1,2-a]pyrazin-6-yl} benzamide]
7.2 | CC(C)CNc1nc(-c2ccc(-c3ccccc3)cc2)cn2c(-c3ccc(C(=O)NC4CC4)cc3)cnc12 [Example 1-49, 4-{6-(biphenyl-4-yl)-8-[(2-methylpropyl)amino]imidazo[1,2-a]pyrazin-3-yl}-N-cyclopropyl-benzamide]
1.6 | CC(C)CNc1nc(-c2ccc(N3CCN(C)CC3)cc2)cn2c(-c3ccc(C(=O)NC4CC4)cc3)cnc12 [Example 1-90, N-cyclopropyl-4-{6-[4-(4-methylpiperazin-1-yl)phenyl]-8-[(2-methyl-propyl)amino]imidazo [1,2-a]pyrazin-3-yl} benzamide]
28.4 | O=C(NC1CC1)c1ccc(-c2cnc3c(NCCCN4CCCC4)nc(-c4ccccc4)cn23)cc1 [Example 2-36, N-cyclopropyl-4-(6-phenyl-8-{[3-(pyrrolidin-1-yl)propyl]amino}imidazo[1,2-a]pyrazin-3-yl)benzamide]
2.3 | O=C(NC1CC1)c1ccc(-c2cnc3c(NCC4CCC4)nc(-c4ccccc4)cn23)cc1 [Example 2-73, 4-{8-[(Cyclobutylmethyl)amino]-6-phenylimidazo[1,2-a]pyrazin-3-yl}-N-cyclopropylbenzamide]
5.3 | CC(C)CNc1nc(-c2ccc(F)cc2)cn2c(-c3ccc(C(=O)NC4CC4)c(F)c3)cnc12 [Example 1-109, N-cyclopropyl-2-fluoro-4-{6-(4-fluorophenyl)-8-[(2-methylpropyl)amino]imidazo[1,2-a]pyrazin-3-yl}benzamide]
2 | CC(C)CNc1nc(-c2ccc([N+](=O)[O-])cc2)cn2c(-c3ccc(C(=O)NC4CC4)cc3)cnc12 [Example 1-61, N-cyclopropyl-4-{8-[(2-methylpropyl)amino]-6-(4-nitrophenyl)imidazo [1,2-a]pyrazin-3-yl} benzamide]
3.1 | O=C(NC1CC1)c1ccc(-c2cnc3c(NCC(F)F)nc(-c4ccccc4)cn23)cc1 [Example 2-52, N-cyclopropyl-4-{8-[(2,2-difluoroethyl)amino]-6-phenylimidazo[1,2-a]pyrazin-3-yl}benzamide]
10.3 | O=C(NC1CC1)c1ccc(-c2cnc3c(NCCc4ccccn4)nc(-c4ccccc4)cn23)cc1 [Example 2-24, N-cyclopropyl-4-(6-phenyl-8-{[2-(pyridin-2-yl)ethyl]amino}imidazo[1,2-a]pyrazin-3-yl) benzamide]
